From PMC6251916, “CKD-506, a novel HDAC6-selective inhibitor, improves renal outcomes and survival in a mouse model of systemic lupus erythematosus” (Scientific Reports, 2018)

Tests used:
NZB/W F1 female mice [1] = test: Murine SLE model: serum cytokine levels (Milliplex); assay type: in vivo, mouse; conditions: at autopsy, mean ± SD, n = 14
Protocol: Serum samples were assayed using Milliplex® MAP Kits (Millipore) for granulocyte macrophage-colony stimulating factor (GM-CSF), interferon-γ (IFN-γ), interleukin-1α (IL-1α), IL-1β, IL-10, IL-12(p70), IL-15, IL-17a, IL-2, IL-4, IL-6, tumor necrosis factor α (TNF-α), transforming growth factor beta 1 (TGF-β1), IL-22, IL-23, IFN-inducible protein 10 (IP-10 (CXCL10)) and chemokine (C-C motif) ligand 2 (CCL2 (MCP-1)).

NZB/W F1 female mice [2] = test: Murine SLE model: cytokine levels in kidney extracts; assay type: in vivo, mouse; conditions: at autopsy, mean ± SD
Protocol: The kidneys were weighed and then transferred into dPBS (Welgene) supplemented with anti-protease Complete TM cocktail (Boehringer) using 12.5 μl of dPBS per milligram of wet weight tissue. Samples were homogenized twice using an Automill TK-AM5 freeze-crushing cell homogenizer (W 280 mm × D 390 mm × H 290 mm, Tokken Inc., Chiba, Japan) at 1,400 rpm for 90 seconds and then centrifuged at 16,000 × g for 15 min at 4 °C. The supernatants were collected and total protein concentrations were determined in the kidney extracts using a bicinchoninic acid (BCA) protein assay kit™ (Pierce). Total protein concentrations of the kidney extracts were adjusted to 2 mg/dl and used for the analysis of IFN-γ, IL-10, IL-15, IL-17, IL-1β, IL-4, IL-6, IP-10, MCP-1, CCL4, RANTES, TNF-α and sCD40L with Milliplex® MAP Kits (Millipore).

[3] = group D: CKD-506 10 mg/kg/day, n = 10
[4] = group E: CKD-506 30 mg/kg/day, n = 14

CKD-506
Serum TGF-β1 (NZB/W F1 female mice [1]; group E: CKD-506 30 mg/kg/day): 58807.36 ± 25015.67 pg/mL
Serum TNF-α (NZB/W F1 female mice [1]; group E: CKD-506 30 mg/kg/day): 16.25 ± 50.35 pg/mL
Serum GM-CSF (NZB/W F1 female mice [1]; group F: 50 mg/kg/day): 1.89 ± 7.09 pg/mL
Serum IFN-γ (NZB/W F1 female mice [1]; group F: 50 mg/kg/day): 2.07 ± 5.38 pg/mL
Serum IL-1α (NZB/W F1 female mice [1]; group F: 50 mg/kg/day): 629.16 ± 480.71 pg/mL
Serum IL-1β (NZB/W F1 female mice [1]; group F: 50 mg/kg/day): 3.86 ± 7.83 pg/mL
Serum IL-2 (NZB/W F1 female mice [1]; group F: 50 mg/kg/day): 4.09 ± 9.84 pg/mL
Serum IL-4 (NZB/W F1 female mice [1]; group F: 50 mg/kg/day): 3.70 ± 6.48 pg/mL
Serum IL-6 (NZB/W F1 female mice [1]; group F: 50 mg/kg/day): 5.69 ± 8.94 pg/mL
Serum IL-10 (NZB/W F1 female mice [1]; group F: 50 mg/kg/day): 8.31 ± 14.15 pg/mL
Serum IL-12(70) (NZB/W F1 female mice [1]; group F: 50 mg/kg/day): 15.62 ± 45.25 pg/mL
Serum IL-15 (NZB/W F1 female mice [1]; group F: 50 mg/kg/day): 26.24 ± 28.73 pg/mL
Serum IL-17 (NZB/W F1 female mice [1]; group F: 50 mg/kg/day): 4.82 ± 7.15 pg/mL
Serum IL-22 (NZB/W F1 female mice [1]; group F: 50 mg/kg/day): 6.37 ± 5.56 pg/mL
Serum IL-23 (NZB/W F1 female mice [1]; group F: 50 mg/kg/day): 41.34 ± 154.68 pg/mL
Serum TGF-β1 (NZB/W F1 female mice [1]; group F: 50 mg/kg/day): 73110.92 ± 17325.08 pg/mL
Serum TNF-α (NZB/W F1 female mice [1]; group F: 50 mg/kg/day): 1.24 ± 2.60 pg/mL
Kidney extract CCL2 (NZB/W F1 female mice [2]; [3]): 61.30 ± 70.39 pg/mL
Kidney extract CCL4 (NZB/W F1 female mice [2]; [3]): 12.77 ± 23.90 pg/mL
Kidney extract IFN-γ (NZB/W F1 female mice [2]; [3]): 17.46 ± 15.04 pg/mL
Kidney extract IL-1β (NZB/W F1 female mice [2]; [3]): 2.09 ± 2.68 pg/mL
Kidney extract IL-4 (NZB/W F1 female mice [2]; [3]): 0.01 ± 0.02 pg/mL
Kidney extract IL-6 (NZB/W F1 female mice [2]; [3]): 3.99 ± 2.72 pg/mL
Kidney extract IL-10 (NZB/W F1 female mice [2]; [3]): 9.43 ± 4.36 pg/mL
Kidney extract IL-15 (NZB/W F1 female mice [2]; [3]): 34.25 ± 21.24 pg/mL
Kidney extract IP-10 (NZB/W F1 female mice [2]; [3]): 98.47 ± 44.61 pg/mL
Kidney extract RANTES (NZB/W F1 female mice [2]; [3]): 31.17 ± 24.93 pg/mL
Kidney extract TNF-α (NZB/W F1 female mice [2]; [3]): Not detected
Kidney extract CCL2 (NZB/W F1 female mice [2]; [4]): 21.90 ± 17.10 pg/mL
Kidney extract CCL4 (NZB/W F1 female mice [2]; [4]): 1.70 ± 4.61 pg/mL
Kidney extract IFN-γ (NZB/W F1 female mice [2]; [4]): 13.12 ± 4.85 pg/mL
Kidney extract IL-1β (NZB/W F1 female mice [2]; [4]): 1.18 ± 2.19 pg/mL
Kidney extract IL-4 (NZB/W F1 female mice [2]; [4]): 0.02 ± 0.05 pg/mL
Kidney extract IL-6 (NZB/W F1 female mice [2]; [4]): 1.65 ± 0.82 pg/mL
Kidney extract IL-10 (NZB/W F1 female mice [2]; [4]): 9.62 ± 2.42 pg/mL
Kidney extract IL-15 (NZB/W F1 female mice [2]; [4]): 42.42 ± 16.89 pg/mL
Kidney extract IP-10 (NZB/W F1 female mice [2]; [4]): 63.40 ± 21.06 pg/mL
Kidney extract RANTES (NZB/W F1 female mice [2]; [4]): 9.30 ± 7.86 pg/mL
Kidney extract TNF-α (NZB/W F1 female mice [2]; [4]): Not detected
Kidney extract CCL2 (NZB/W F1 female mice [2]; group F: 50 mg/kg/day, n = 14): 3.15 ± 6.10 pg/mL
Kidney extract CCL4 (NZB/W F1 female mice [2]; group F: 50 mg/kg/day, n = 14): Not detected*
Kidney extract IFN-γ (NZB/W F1 female mice [2]; group F: 50 mg/kg/day, n = 14): 6.77 ± 4.06 pg/mL
Kidney extract IL-1β (NZB/W F1 female mice [2]; group F: 50 mg/kg/day, n = 14): 0.26 ± 0.60 pg/mL
Kidney extract IL-4 (NZB/W F1 female mice [2]; group F: 50 mg/kg/day, n = 14): Not detected*
Kidney extract IL-6 (NZB/W F1 female mice [2]; group F: 50 mg/kg/day, n = 14): 0.43 ± 0.45 pg/mL
Kidney extract IL-10 (NZB/W F1 female mice [2]; group F: 50 mg/kg/day, n = 14): 7.60 ± 2.08 pg/mL
Kidney extract IL-15 (NZB/W F1 female mice [2]; group F: 50 mg/kg/day, n = 14): 32.82 ± 11.63 pg/mL
Kidney extract IP-10 (NZB/W F1 female mice [2]; group F: 50 mg/kg/day, n = 14): 43.90 ± 14.50 pg/mL
Kidney extract RANTES (NZB/W F1 female mice [2]; group F: 50 mg/kg/day, n = 14): 3.80 ± 2.17 pg/mL
Kidney extract TNF-α (NZB/W F1 female mice [2]; group F: 50 mg/kg/day, n = 14): Not detected
